Marks after values point to notes of the source that are not given here. Positions of bridges follow the written chain, without caps; N, C: chain ends. Non-standard residues stand in square brackets, D forms with d. No end group written: not given here.
How the values were obtained:
[1] = tested on: MCP-1 induced THP-1 migration; test: THP-1 trans-well migration assay, MCP-1 as chemoattractant; format: cell-based, human; conditions: ns = not significantly different from control
Protocol: (§1) To determine whether an agent inhibits a chemokine-induced activity, such as macrophage recruitment, varying amounts of the agent are mixed with cells in the presence of a known chemoattractant. For example, a range of known concentrations of an agent, e.g., a chemokine peptide, is incubated with a defined number (e.g., 10^4-10^6) of human THP-1 monocyte cells in individual wells of the top compartment of a trans-well plate. Chemokine (such as MCP-1, MIP1α, IL8 or SDF-1α), at a concentration known to cause significant migration of THP-1 cells in the trans-well migration assay, is placed in the lower compartment (FIG. 1). Cells are then incubated at 37° C. for a period sufficient to allow migration, e.g., 4 hours. After incubation, the cells are gently removed from the top of the filter with a pipette, 20 μl of 20 mM EDTA in simple PBS is added into each top well, and incubated for 20 minutes at 4° C. The filter is carefully flushed with media using a gentle flow, and removed. A standard curve consisting of a two-fold dilution series of THP-1 cells (in 29 μl) is prepared to accurately quantify the number of cells that have migrated. Migrated cells are stained with 3 μl of MTT stock dye solution which is added directly into each well (5 mg/ml in RPMI-1640 without phenol red, Sigma Chemical Co.) and incubated at 37° C. for 4 hours. The media is carefully aspirated from each well, and the converted dye is solubilized by 20 μl of DMSO. Absorbance of converted dye is measured at a wavelength of 595 nm using an ELISA plate reader. The number of migrated cells in each well is then determined by interpolation of the standard curve (see also Imai et al., J. Biol. Chem., 272, 15036 (1997)).
(§2) For this assay, THP-1 cells were maintained at a density of 4×10^5 cells per ml in RPMI-1640 supplemented with 10% fetal calf serum+20 μM 2-mercaptoethanol. Chemotaxis was induced in a 96-well disposable chemotaxis chamber fitted with a […] polycarbonate filter (PVP free, ChemoTX, Neuroprobe Inc., Cabin John). Twenty-nine μl of chemoattractant (recombinant human chemokine; 50 ng/ml, i.e., 5.9 nM) or control (100 ng/ml TGFβ) was added to the lower compartment of each well. The framed filter was aligned with the holes in the corner of the filter frame and placed over the wells. Five×10^4 THP-1 cells in 25 μl of RPMI-1640 were added to the upper compartment. Peptides were dissolved in Milli Q water and then serially diluted in culture medium. In most cases, the serially diluted peptides were added to the upper compartment of the chemotaxis chamber. The chamber was incubated at 37° C. in a humidified atmosphere of 5% CO2 for 4 hours.
(§3) After incubation, the cells were gently removed from the top of the filter with a pipette, 20 μl of 20 mM EDTA in PBS was added into each top well, and the mixture was incubated for 20 minutes at 4° C. The filter was then carefully flushed with media using a gentle flow, and removed. A standard curve was prepared to accurately quantify the number of THP-1 cells that had migrated. The curve was based on a two-fold dilution series of THP-1 cells (top standard 100,000 cells in 29 μl). Cells which had migrated, and in separate wells, the cells in the standards, were stained with 3 μl of MTT stock solution which was added directly into each well (5 mg/ml in RPMI 1640 without phenol red, Sigma Chemical Co.) and incubated at 37° C. for 4 hours. The media was carefully aspirated from each well, and the converted dye was solubilized by 20 μl of DMSO. Absorbance of converted dye was measured at a wavelength of 595 nm using an ELISA plate reader. The number of cells that had migrated in each well was determined by interpolation of the standard curve.

[2] = tested on: MIP1α induced THP-1 migration; test: THP-1 trans-well migration assay, MIP1α as chemoattractant; format: cell-based, human; conditions: ns = not significantly different from control
Protocol: as §1, §2, §3

[3] = tested on: SDF-1α induced THP-1 migration; test: THP-1 trans-well migration assay, SDF-1α as chemoattractant; format: cell-based, human; conditions: ns = not significantly different from control
Procedure, shortened: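 5×10^4 THP-1 cells with serially diluted peptide in upper chamber, 5 µm filter, recombinant human chemokine 50 ng/ml (5.9 nM) in lower chamber. Incubated 4 h at 37 °C. Migrated cells counted by MTT staining, A595 read against a THP-1 standard curve.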

[4] = tested on: chemokine-induced THP-1 migration; test: THP-1 trans-well migration assay, panel of chemokines (MCP-1, MIP1α, IL-8, SDF1α); format: cell-based, human; conditions: MCP-1, MIP1α, IL-8, SDF1α
[5] = tested on: chemokine receptors on THP-1 cells; test: Binding to chemokine receptors on THP-1 cells; parameters: species or system human
Protocol: In general, specific binding is calculated as the amount of labeled agent bound in the absence of cold competitor minus the amount of labeled agent bound in the presence of cold competitor. The amount of specific binding in the presence of varied amounts of cold competitor can be used to determine the association constant for the agent, as well as the number of binding sites on the cell for the agent, using, for example, Scatchard Analysis. The agent may be labeled by radiolabeling (e.g., iodination) or with a suitable biochemical tag (e.g., biotin) or by addition of a photoactivatable crosslinking group. Agents with an association constant lower than 100 μM (i.e., which bind more strongly than an agent with an association constant of 100 μM) and which have at least about 2,500, preferably at least about 10,000, and more preferably greater than 25,000, binding sites per cell for at least one cell type which expresses a chemokine receptor, fall under the scope of this invention. THP-1 cells have at least about 5,000 MCP-1 receptors/cell.
For example, monocytes are suspended in RPMI 1640 medium without bicarbonate containing 0.2% bovine serum albumin and 0.1% azide. Radiolabeled chemokine peptide is incubated with 1-2×10^6 cells, e.g., THP-1 cells, in the presence or absence of increasing concentrations of unlabeled chemokine (MCP-1, MCP-3, MCP-4, RANTES or MIP-1α) for 15 minutes at 37° C. in a 96-well plate in a final volume of 0.2 ml (e.g., PBS+0.5% FCS). After the incubation, 0.5 ml of ice-cold wash buffer (20 mM Tris, 0.5 M NaCl, pH 7.4) is added, and cells are collected onto a polyethyleneimine-treated Whatman GF/C filter using a Brandall cell harvester. Filters are washed with 4 ml of cold wash buffer, and the radioactivity bound to the filters is counted in a γ-counter.
For Scatchard analysis, the absorbance readings at 450 nm were calibrated, by reference to a standard curve in which known amounts of labeled peptide were coupled to derivatized sepharose beads (activated thiol-sepharose 4B; Sigma T8512) via the cysteine residue in each peptide. Briefly, known amounts (1 fmol to 1 pmol) of biotin-labeled peptide were incubated with 1 mg of activated thiol-sepharose beads in 100 μl of PBS at 37° C. for 1 hour. Free activated thiols were then blocked by addition of cysteine to a final concentration of 10 mM. The peptide-conjugated beads were then washed 5 times in PBS and treated exactly as for the cells described above. The absorbance at 450 nm obtained when a known amount of peptide was coupled to the beads was used to construct a standard curve which was used to convert the absorbance readings obtained with cells into number of molecules of labeled peptide which had bound.

gp120 = conditions: ns = not significantly different from control; >100 = ED50 not determined
[6] = biological target: T1, Duffy Antigen Receptor for Chemokines (DARC) (Homo sapiens, UniProt Q16570); test: DARC binding: competition with 125I-MCP-1 on red blood cells; conditions: for DARC binding: ns = not significantly different from control, >100 = ED50 not determined
T1 sequence (Q16570 1-336): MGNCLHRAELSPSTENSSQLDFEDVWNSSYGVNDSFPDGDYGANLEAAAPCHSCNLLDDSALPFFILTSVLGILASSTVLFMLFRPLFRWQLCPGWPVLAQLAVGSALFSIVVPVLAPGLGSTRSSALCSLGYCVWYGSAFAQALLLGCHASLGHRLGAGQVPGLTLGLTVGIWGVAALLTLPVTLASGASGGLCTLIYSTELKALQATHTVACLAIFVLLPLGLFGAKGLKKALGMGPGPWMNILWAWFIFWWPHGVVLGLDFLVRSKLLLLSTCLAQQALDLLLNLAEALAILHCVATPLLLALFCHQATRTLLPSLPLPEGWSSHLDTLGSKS

[7] = in vivo; cited from earlier work
HIV = format: cell-based; conditions: ns = not significantly different from control
[8] = tested on: TGF-beta receptor of THP-1 cells; test: Binding of biotinylated TGF-beta peptides to THP-1 cells; parameters: species or system human; conditions: for EC50: biotinylated peptide, read-out: ED50 of binding to the TGF-beta receptor of THP-1 cells
[9] = tested on: RANTES induced THP-1 migration; test: THP-1 trans-well migration assay, RANTES as chemoattractant; format: cell-based, human; conditions: tripeptide at 100 μM, mean ± range; dash = no statistically significant reduction in migration
Protocol: To determine whether an agent inhibits a chemokine-induced activity, such as macrophage recruitment, varying amounts of the agent are mixed with cells in the presence of a known chemoattractant. For example, a range of known concentrations of an agent, e.g., a chemokine peptide, is incubated with a defined number (e.g., 10^4-10^6) of human THP-1 monocyte cells in individual wells of the top compartment of a trans-well plate. Chemokine (such as MCP-1, MIP1α, IL8 or SDF-1α), at a concentration known to cause significant migration of THP-1 cells in the trans-well migration assay, is placed in the lower compartment (FIG. 1). […] A standard curve consisting of a two-fold dilution series of THP-1 cells (in 29 μl) is prepared to accurately quantify the number of cells that have migrated. […] Absorbance of converted dye is measured at a wavelength of 595 nm using an ELISA plate reader. The number of migrated cells in each well is then determined by interpolation of the standard curve (see also Imai et al., J. Biol. Chem., 272, 15036 (1997)). […]
After incubation, the cells were gently removed from the top of the filter with a pipette, 20 μl of 20 mM EDTA in PBS was added into each top well, and the mixture was incubated for 20 minutes at 4° C. […] A standard curve was prepared to accurately quantify the number of THP-1 cells that had migrated. […]

| Compound | MCP-1 ED-50 [1] | MIPIa ED-50 [2] | SDF1a ED-50 [3] | gp120 ED-50 (gp120) | % virus inhibition (HIV) | DARC binding [6] | other results |
| --- | --- | --- | --- | --- | --- | --- | --- |
| HLKILNTPNCALQIV [Pep2[SDF1]] | 10 =M | 40 =M | 7 =M | 35 µM |  |  | effect on THP-1 migration induced by the chemokine panel, in words [4]: potent pan-chemokine antagonist properties; AVERAGE ED50, peptide 2 family: estimated ka for binding to THP-1 cells [5]: 1-10^e μM; DUFFY SELECTIVITY, peptide 2 family ([6]; ka for binding to red blood cells divided by the ka for binding THP-1 cells): <1^d |
| NCC[C@H](O)C(=O)N[C@@H]1C[C@H](N)[C@@H](O[C@H]2O[C@H](CN)[C@@H](O)[C@H](O)[C@H]2O)[C@H](O)[C@H]1O[C@H]1O[C@H](CO)[C@@H](O)[C@H](N)[C@H]1O [amikacin] |  |  |  |  |  |  | T1/2 [7]: about 2 hours; Vd [7]: 0.27 L/kg; urinary excretion [7]: 98% |
| CSYRRITSSKSPKEAVC | ns | ns | ns |  | ns | ns |  |
| TSSKC | ns | ns | ns | ns | ns | ns |  |
| CC[C@H](C)[C@H](NC(=O)[C@H](CCCNC(=N)N)NC(=O)[C@H](CCCNC(=N)N)NC(=O)[C@H](Cc1ccc(O)cc1)NC(=O)[C@@H](N)CO)C(=O)N[C@H](C(=O)N[C@@H](CO)C(=O)N[C@@H](CO)C(=O)N[C@@H](CCCCN)C(=O)N[C@@H](CS)C(=O)O)[C@@H](C)O | ns | ns | ns | 60 µM | ns |  |  |
| biotinylated HEPKGYHANFC [Biotinylated T2] |  |  |  |  |  |  | receptor character (agonist, antagonist, neutral) [8]: weak receptor antagonist; EC50 [8]: 30 µM |
| biotinylated LYIDFRQDLGWKW (also: biotinylated, site not given here) [Biotinylated T1] |  |  |  |  |  |  | receptor character (agonist, antagonist, neutral) [8]: receptor neutral agent; EC50 [8]: 18 µM |
| vgpkscqsstefyd | ns | ns | ns | ns | ns | ns |  |
| SYRRI | ns | ns | ns | ns | ns | ns |  |
| CSKPGV | ns | ns | ns | ns | ns | ns |  |
| =cvaekpsksstirrysc= ([dC][dV][dA][dE][dK][dP][dS][dK][dS][dS][dT][dI][dR][dR][dY][dS][dC]; disulfide 1-17 (inferred); not fully specified (C-terminus); printed as =cvaekpsksstirrysc=) | ns | ns | ns | ns | ns |  |  |
| SES |  |  |  |  |  |  | percentage inhibition of migration induced by RANTES [9]: 87 ± 4% |
| DYFETSSQC | ns | ns | ns | ns | ns | ns |  |

— US7989466B2, “Methods to inhibit or augment an inflammatory response” (Cambridge Enterprise Limited, priority 1999, dated 2011)
